In patent US20260364184A1, “COMPOUND BASED ON OXOISOINDOLINYL-SUBSTITUTED TETRAHYDROPYRIMIDINE-DIONE AND USE THEREOF” (GLUETACS THERAPEUTICS (SHANGHAI) CO., LTD., priority 2023, published 2026):

Experiments:
[1] = tested on: Human large cell immunoblastic lymphoma cell line SR; experiment: Inhibition of SR cell proliferation (CellTiter luminescent viability); assay type: cell-based; details: Table IB1, ALK inhibitor-based, 96 hours, read-out: Inhibitory activity (IC50, nM) on tumor cell proliferation, SR
Method: The tumor cells used herein were cultured in a cell culture medium listed in table 3 at 37 °C in an incubator with 5% CO2. Prior to experimentation, all cell lines used were correctly identified by STR profiling, and tested negative for mycoplasma contamination using a mycoplasma detection kit through routine screenings.
The IC50 values of the compounds of the present disclosure (including the compounds in Table 1, Table 2, and Examples 1-468) were determined using the CellTiter-Meiluncell Luminescent Cell Viability Assay Kit from Dalian Meilun Biotech Co., Ltd. The detailed procedure is as follows: Tumor cells were seeded in 96-well cell culture plates at the densities specified in Table 4. On the following day, the test compounds of the present disclosure were subjected to serial dilution. The dilution can be performed according to one of the following two methods: • (1) The first dilution method: The test compounds of the present disclosure (including the compounds in Table 1, Table 2, and Examples 1-468) were subjected to 5-fold serial dilutions starting from a highest concentration of 2000 μM, resulting in a total of 9 concentrations from high to low (2000, 400, 80, 16, 3.2, 0.64, 0.128, 0.0256, 0.00512 μM). Subsequently, 0.5 μL of the test compound dilution was transferred into the 96-well plate containing the cells, with each well containing 100 μL of cell culture medium. […] Into the 96-well plate, the diluted test compounds and corresponding detection reagents were added, resulting in final test compound concentrations of 500 nM and 10 nM, respectively. The experimental procedure is described below using the diluted 2 μM test compound as an example.
0.5 μL of the aforementioned diluted compound of the present disclosure (including the compounds in Table 1, Table 2, and Examples 1-468) was added to the seeded cells in 100 μL of medium, yielding a final test compound concentration of 10 nM. After the cells were treated with the compounds of the present disclosure for a specified period, the cell viability assay reagent was added to the culture medium according to the kit's instructions to determine cell viability. […] All controls were treated using the same procedure as the compounds of the present disclosure. The growth inhibition curves for the compounds of the present disclosure were plotted using Prism GraphPad software, and the IC50 values were calculated therefrom.

[2] = biological target: T1, ALK (Homo sapiens, UniProt Q9UM73); experiment: Western blot degradation of ALK; assay type: cell-based; details: H2228 Cell; 24 hours
T1 construct: known EML4-ALK variant 3 fusion, ALK kinase part unmutated), Western blot
T1 sequence (Q9UM73 19-1620): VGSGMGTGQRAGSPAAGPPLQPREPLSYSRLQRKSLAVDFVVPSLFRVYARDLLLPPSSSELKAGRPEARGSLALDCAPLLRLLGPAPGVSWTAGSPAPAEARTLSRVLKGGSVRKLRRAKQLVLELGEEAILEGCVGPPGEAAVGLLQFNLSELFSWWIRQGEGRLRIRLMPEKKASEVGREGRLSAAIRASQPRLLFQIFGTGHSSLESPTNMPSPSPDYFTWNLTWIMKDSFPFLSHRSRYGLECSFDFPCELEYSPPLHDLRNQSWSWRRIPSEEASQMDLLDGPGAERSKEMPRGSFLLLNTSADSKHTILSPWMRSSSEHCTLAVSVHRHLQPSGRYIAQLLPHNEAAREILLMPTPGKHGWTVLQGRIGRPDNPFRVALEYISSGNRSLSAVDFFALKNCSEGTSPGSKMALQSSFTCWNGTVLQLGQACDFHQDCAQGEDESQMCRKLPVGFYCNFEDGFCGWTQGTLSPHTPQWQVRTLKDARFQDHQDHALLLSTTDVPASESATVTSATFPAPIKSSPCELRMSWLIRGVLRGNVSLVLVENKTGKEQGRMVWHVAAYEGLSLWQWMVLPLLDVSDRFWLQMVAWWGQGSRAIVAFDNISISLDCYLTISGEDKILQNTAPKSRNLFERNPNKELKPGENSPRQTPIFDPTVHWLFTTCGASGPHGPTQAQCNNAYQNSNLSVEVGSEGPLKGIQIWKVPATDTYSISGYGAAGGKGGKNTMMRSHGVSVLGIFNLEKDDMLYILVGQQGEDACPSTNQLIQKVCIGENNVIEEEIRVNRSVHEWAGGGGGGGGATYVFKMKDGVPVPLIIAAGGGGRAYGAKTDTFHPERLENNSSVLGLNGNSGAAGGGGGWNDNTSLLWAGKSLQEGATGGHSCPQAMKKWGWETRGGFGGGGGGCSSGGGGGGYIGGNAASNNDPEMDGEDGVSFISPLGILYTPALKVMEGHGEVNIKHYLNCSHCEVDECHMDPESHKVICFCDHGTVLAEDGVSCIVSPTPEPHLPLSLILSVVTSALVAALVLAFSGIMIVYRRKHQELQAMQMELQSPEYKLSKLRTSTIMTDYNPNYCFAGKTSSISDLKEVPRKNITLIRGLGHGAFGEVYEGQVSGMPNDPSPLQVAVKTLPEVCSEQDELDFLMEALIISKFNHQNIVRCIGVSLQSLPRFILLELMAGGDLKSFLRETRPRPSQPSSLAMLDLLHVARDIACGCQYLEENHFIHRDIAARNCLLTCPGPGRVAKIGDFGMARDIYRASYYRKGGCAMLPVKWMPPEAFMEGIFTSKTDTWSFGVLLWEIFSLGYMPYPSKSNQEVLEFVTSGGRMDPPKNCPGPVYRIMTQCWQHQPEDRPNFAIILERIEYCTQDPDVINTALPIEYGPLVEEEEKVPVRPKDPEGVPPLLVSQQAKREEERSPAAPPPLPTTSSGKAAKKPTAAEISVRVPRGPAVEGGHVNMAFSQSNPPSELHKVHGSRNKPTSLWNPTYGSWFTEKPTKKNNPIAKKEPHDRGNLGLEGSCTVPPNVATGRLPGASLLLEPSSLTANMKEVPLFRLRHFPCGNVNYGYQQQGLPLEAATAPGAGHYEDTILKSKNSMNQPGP
T1 sequence (Q96SW2 whole entry partner, the tested form may be a part): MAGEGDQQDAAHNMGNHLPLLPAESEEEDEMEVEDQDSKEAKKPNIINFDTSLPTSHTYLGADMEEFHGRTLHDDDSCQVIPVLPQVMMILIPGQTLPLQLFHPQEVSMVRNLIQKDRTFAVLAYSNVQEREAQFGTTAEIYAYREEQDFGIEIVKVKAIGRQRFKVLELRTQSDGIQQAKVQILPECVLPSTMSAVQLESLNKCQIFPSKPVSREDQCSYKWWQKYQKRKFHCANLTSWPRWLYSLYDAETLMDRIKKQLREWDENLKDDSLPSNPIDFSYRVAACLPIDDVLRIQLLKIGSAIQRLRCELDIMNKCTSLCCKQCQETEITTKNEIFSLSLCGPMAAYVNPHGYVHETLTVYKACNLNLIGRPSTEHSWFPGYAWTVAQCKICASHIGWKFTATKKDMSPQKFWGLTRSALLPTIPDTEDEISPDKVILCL
Method: Conventional Western blot assay was performed to evaluate the effects of the compounds of the present disclosure on the expression of target proteins in cells.
(1) Cell Seeding and Protein Harvesting: The selected cells were processed according to the cell seeding procedure and protein harvesting procedure in Table II-2.
(2) To the collected supernatant, 5×SDS sample loading buffer was added, followed by denaturation at 95 °C for 5 minutes. The denatured samples were then separated by SDS-PAGE electrophoresis on a polyacrylamide gel. Proteins were transferred to a nitrocellulose membrane (0.45 μm NC membrane), blocked with blocking buffer at room temperature for 1 hour, and subjected to antibody incubation and development procedures according to the antibody manufacturer's instructions (Cell Signaling Technology).
Half-Maximal Degradation Concentration value (the drug concentration required for degrading proteins by 50%, abbreviated as DC50) reads method: comparing the grayscale values of Western blot bands from drug-treated samples with those from blank DMSO-treated controls, and identifying the drug concentration range at which the grayscale value is half that of the DMSO-treated control bands.
DC50 values can be calculated using ImageJ software to measure grayscale values of Western blot bands from drug-treated samples. The concentration-response curve is fitted to estimate the drug concentration corresponding to half the grayscale value.
Target protein remaining (%) refers to the percentage of target protein remaining in cells after treatment with protein degrader compounds.
Calculation method for target protein remaining (%): Use ImageJ software to measure grayscale values of Western blot bands from drug (protein degrader)-treated samples. The grayscale value of drug-treated bands is divided by that of internal control protein bands, and the resulting quotient is normalized to obtain the relative percentage of remaining target protein after protein degrader treatment.
Target protein degradation rate (%)=1−target protein remaining (%).

Row | IC50 [1] [nM] | Degradation of substrate protein ALK (substrate protein remaining %) [2] | Structure (SMILES)
1 | 10 to 50 | A (0%≤substrate protein remaining %≤80%) | CCc1cc2c(cc1N1CCC(N3CCN(CC4CCN(c5cccc6c5C(=O)N(N5CCC(=O)NC5=O)C6=O)CC4)CC3)CC1)C(C)(C)c1[nH]c3cc(C#N)ccc3c1C2=O [GT-07298, 8-(4-(4-((1-(2-(2,4-dioxotetrahydropyrimidin-1(2H)-yl)-1,3-dioxoisoindolin-4-yl)piperidin-4-yl)methyl)piperazin-1-yl)piperidin-1-yl)-9-ethyl-6,6-dimethyl-11-oxo-6,11-dihydro-5H-benzo[b]carbazole-3-carbonitrile]
2 | 10 to 50 | A (0%≤substrate protein remaining %≤80%) | CCc1cc2c(cc1N1CCN(Cc3ccc4c(c3)CN(N3CCC(=O)NC3=O)C4=O)CC1)C(C)(C)c1[nH]c3cc(C#N)ccc3c1C2=O [GT-07340, 8-(4-((2-(2,4-dioxotetrahydropyrimidin-1(2H)-yl)-1-oxoisoindolin-5-yl)methyl)piperazin-1-yl)-9-ethyl-6,6-dimethyl-11-oxo-6,11-dihydro-5H-benzo[b]carbazole-3-carbonitrile]
3 | 50 to 100 | A (0%≤substrate protein remaining %≤80%) | COc1cc(N2CCN(CC3CCN(c4ccc5c(c4)C(=O)N(N4CCC(=O)NC4=O)C5=O)CC3)CC2)ccc1Nc1ncc(Cl)c(Nc2ccccc2P(C)(C)=O)n1 [GT-07343, 5-(4-((4-(4-((5-chloro-4-((2-(dimethylphosphoryl)phenyl)amino)pyrimidin-2-yl)amino)-3-methoxyphenyl)piperazin-1-yl)methyl)piperidin-1-yl)-2-(2,4-dioxotetrahydropyrimidin-1(2H)-yl)isoindoline-1,3-dione]
4 | 50 to 100 | A (0%≤substrate protein remaining %≤80%) | CCc1cc2c(cc1N1CCN(CC3CCN(c4ccc5c(c4)C(=O)N(N4CCC(=O)NC4=O)C5=O)CC3)CC1)C(C)(C)c1[nH]c3cc(C#N)ccc3c1C2=O [GT-07321, 8-(4-((1-(2-(2,4-dioxotetrahydropyrimidin-1(2H)-yl)-1,3-dioxoisoindolin-5-yl)piperidin-4-yl)methyl)piperazin-1-yl)-9-ethyl-6,6-dimethyl-11-oxo-6,11-dihydro-5H-benzo[b]carbazole-3-carbonitrile]
5 | 10 to 50 | A (0%≤substrate protein remaining %≤80%) | CCc1cc2c(cc1N1CCN(CC3CCN(c4cccc5c4C(=O)N(N4CCC(=O)NC4=O)C5=O)CC3)CC1)C(C)(C)c1[nH]c3cc(C#N)ccc3c1C2=O [GT-07322, 8-(4-((1-(2-(2,4-dioxotetrahydropyrimidin-1(2H)-yl)-1,3-dioxoisoindolin-4-yl)piperidin-4-yl)methyl)piperazin-1-yl)-9-ethyl-6,6-dimethyl-11-oxo-6,11-dihydro-5H-benzo[b]carbazole-3-carbonitrile]
6 | 10 to 50 | A (0%≤substrate protein remaining %≤80%) | Cc1cc(Nc2ncc(Cl)c(Nc3ccccc3S(=O)(=O)C(C)C)n2)c(OC(C)C)cc1C1CCN(Cc2ccc3c(c2)CN(N2CCC(=O)NC2=O)C3=O)CC1 [GT-07362, 1-(5-((4-(4-((5-chloro-4-((2-(isopropylsulfonyl)phenyl)amino)pyrimidin-2-yl)amino)-5-isopropoxy-2-methylphenyl)piperidin-1-yl)methyl)-1-oxoisoindolin-2-yl)dihydropyrimidine-2,4 (1H,3H)-dione]
7 | – | A (0%≤substrate protein remaining %≤80%) | COc1cc(N2CCC(N(C)Cc3ccc4c(c3)C(=O)N(N3CCC(=O)NC3=O)C4=O)CC2)ccc1Nc1ncc(Cl)c(Nc2ccccc2P(C)(C)=O)n1 [GT-04660, 5-(((1-(4-((5-chloro-4-((2-(dimethylphosphoryl)phenyl)amino)pyrimidin-2-yl)amino)-3-methoxyphenyl)piperidin-4-yl)(methyl)amino)methyl)-2-(2,4-dioxotetrahydropyrimidin-1(2H)-yl)isoindoline-1,3-dione]
8 | 100 to 300 | A (0%≤substrate protein remaining %≤80%) | Cc1cc(Nc2ncc(Cl)c(Nc3ccccc3S(=O)(=O)C(C)C)n2)c(OC(C)C)cc1C1CCN(Cc2ccc3c(c2)C(=O)N(N2CCC(=O)NC2=O)C3=O)CC1 [GT-07363, 5-((4-(4-((5-chloro-4-((2-(isopropylsulfonyl)phenyl)amino)pyrimidin-2-yl)amino)-5-isopropoxy-2-methylphenyl)piperidin-1-yl)methyl)-2-(2,4-dioxotetrahydropyrimidin-1(2H)-yl)isoindoline-1,3-dione]
9 | 100 to 300 | A (0%≤substrate protein remaining %≤80%) | COc1cc(N2CCN(Cc3ccc4c(c3)C(=O)N(N3CCC(=O)NC3=O)C4=O)CC2)ccc1Nc1ncc(Cl)c(Nc2ccccc2P(C)(C)=O)n1 [GT-07342, 5-((4-(4-((5-chloro-4-((2-(dimethylphosphoryl)phenyl)amino)pyrimidin-2-yl)amino)-3-methoxyphenyl)piperazin-1-yl)methyl)-2-(2,4-dioxotetrahydropyrimidin-1(2H)-yl)isoindoline-1,3-dione]
10 | 100 to 300 | A (0%≤substrate protein remaining %≤80%) | CCc1cc2c(cc1N1CCN(Cc3ccc4c(c3)C(=O)N(N3CCC(=O)NC3=O)C4=O)CC1)C(C)(C)c1[nH]c3cc(C#N)ccc3c1C2=O [GT-07320, 8-(4-((2-(2,4-dioxotetrahydropyrimidin-1(2H)-yl)-1,3-dioxoisoindolin-5-yl)methyl)piperazin-1-yl)-9-ethyl-6,6-dimethyl-11-oxo-6,11-dihydro-5H-benzo[b]carbazole-3-carbonitrile]
11 | 10 to 50 | A (0%≤substrate protein remaining %≤80%) | CCc1cc2c(cc1N1CCC(N3CCN(Cc4ccc5c(c4)CN(N4CCC(=O)NC4=O)C5=O)CC3)CC1)C(C)(C)c1[nH]c3cc(C#N)ccc3c1C2=O [GT-06822, 8-(4-(4-((2-(2,4-dioxotetrahydropyrimidin-1(2H)-yl)-1-oxoisoindolin-5-yl)methyl)piperazin-1-yl)piperidin-1-yl)-9-ethyl-6,6-dimethyl-11-oxo-6,11-dihydro-5H-benzo[b]carbazole-3-carbonitrile]
12 | 10 to 50 | A (0%≤substrate protein remaining %≤80%) | COc1cc(N2CCN(Cc3ccc4c(c3)CN(N3CCC(=O)NC3=O)C4=O)CC2)ccc1Nc1ncc(Cl)c(Nc2ccccc2P(C)(C)=O)n1 [GT-07341, 1-(5-((4-(4-((5-chloro-4-((2-(dimethylphosphoryl)phenyl)amino)pyrimidin-2-yl)amino)-3-methoxyphenyl)piperazin-1-yl)methyl)-1-oxoisoindolin-2-yl)dihydropyrimidine-2,4 (1H,3H)-dione]
13 | 50 to 100 | A (0%≤substrate protein remaining %≤80%) | COc1cc(N2CCN(CC3CCN(c4cccc5c4C(=O)N(N4CCC(=O)NC4=O)C5=O)CC3)CC2)ccc1Nc1ncc(Cl)c(Nc2ccccc2P(C)(C)=O)n1 [GT-07344, 4-(4-((4-(4-((5-chloro-4-((2-(dimethylphosphoryl)phenyl)amino)pyrimidin-2-yl)amino)-3-methoxyphenyl)piperazin-1-yl)methyl)piperidin-1-yl)-2-(2,4-dioxotetrahydropyrimidin-1(2H)-yl)isoindoline-1,3-dione]
